According to patent US8163793B2, “Proline derivatives” (Hoffman-La Roche Inc., priority 2009, dated 2012):
pIC50: −log10 of the molar value. Counter-ions that a name gives are not always drawn.

How the values were obtained:
[1] = biological target: Cathepsin S (UniProt P25774); assay: Cathepsin enzyme inhibition assay (fluorogenic peptide substrate Z-Val-Val-Arg-AMC), Cathepsin S; assay type: biochemical, human and mouse; details: enzyme 1 nM, substrate 20 μM, pH 6.5; read-out: CatS IC50
In short: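 Human or mouse cathepsin S (1 nM) was run in 100 mM potassium phosphate pH 6.5 with 5 mM EDTA, 0.001% Triton X-100 and 5 mM DTT. The rise in AMC fluorescence from cleavage was measured, and IC50 values were calculated by standard methods and expressed in μM.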

[2] = biological target: Cat L (UniProt P07711); assay: Cathepsin enzyme inhibition assay (fluorogenic peptide substrate Z-Val-Val-Arg-AMC), Cathepsin L; assay type: biochemical, human and mouse; details: enzyme 1 nM, substrate 20 μM, pH 6.5; read-out: CatL IC50
In short: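 Cathepsin L at 1 nM was mixed with compound, then started with 20 μM Z-Val-Val-Arg-AMC in pH 6.5 potassium phosphate with EDTA, Triton X-100 and 5 mM DTT. AMC fluorescence (ex 360/em 465 nm) was followed over 20 min. IC50 is given in μM.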

Structure (SMILES) | pIC50 [1] | pIC50 [2]
COc1cccc(-n2nc(C)cc2N2C[C@H](S(=O)(=O)c3ccccc3C(F)(F)F)C[C@@H]2C(=O)NC2(C#N)CC2)c1 [Example 334, (2R,4R)-1-[2-(3-Methoxy-phenyl)-5-methyl-2H-pyrazol-3-yl]-4-(2-trifluoromethyl-benzenesulfonyl)-pyrrolidine-2-carboxylic acid (1-cyano-cyclopropyl)-amide] | 6.11 | ≤ 4.60
N#CC1(NC(=O)[C@@H]2C[C@@H](S(=O)(=O)c3ccccc3CO)CN2)CC1 [Example 12, (2S,4R)-4-(2-Hydroxymethyl-benzenesulfonyl)-pyrrolidine-2-carboxylic acid (1-cyano-cyclopropyl)-amide Hydrochloride] | 7.74 | 4.37
N#CC1(NC(=O)[C@@H]2C[C@@H](S(=O)(=O)c3ccc(OCC(F)(F)F)cc3Cl)CN2C(=O)C2(c3ccc(Cl)cc3)CCC2)CC1 [Example 278, (2S,4R)-1-[1-(4-Chloro-phenyl)-cyclobutanecarbonyl]-4-[2-chloro-4-(2,2,2-trifluoro-ethoxy)-benzenesulfonyl]-pyrrolidine-2-carboxylic acid (1-cyano-cyclopropyl)-amide] | 11.52 | 5.56
C=CCOc1ccccc1S(=O)(=O)[C@@H]1C[C@@H](C(=O)NC2(C#N)CC2)N(C(=O)OC(C)(C)C)C1 [Example 450, (2S,4R)-4-(2-Allyloxy-benzenesulfonyl)-2-(1-cyano-cyclopropylcarbamoyl)-pyrrolidine-1-carboxylic acid tert-butyl ester] | 6.17 | ≤ 4.60
N#CC1(NC(=O)[C@@H]2C[C@@H](S(=O)(=O)c3ccc(-n4ccncc4=O)cc3C(F)(F)F)CN2)CC1 [Example 32, (2S,4R)-4-[4-(2-Oxo-2H-pyrazin-1-yl)-2-trifluoromethyl-benzenesulfonyl]-pyrrolidine-2-carboxylic acid (1-cyano-cyclopropyl)-amide hydrochloride] | 8.30 | ≤ 4.60
N#CC1(NC(=O)[C@@H]2C[C@@H](S(=O)(=O)c3ccc(OC4COC4)cc3Cl)CN2C(=O)C2(C(F)(F)F)CC2)CC1 [Example 201, (2S,4R)-4-[2-Chloro-4-(oxetan-3-yloxy)-benzenesulfonyl]-1-(1-trifluoromethyl-cyclopropanecarbonyl)-pyrrolidine-2-carboxylic acid (1-cyano-cyclopropyl)-amide] | 8.47 | ≤ 4.60
CN1CCN(c2ccc(S(=O)(=O)[C@@H]3C[C@@H](C(=O)NC4(C#N)CC4)N(C(=O)OC(C)(C)C)C3)c(C(F)(F)F)c2)CC1 [Example 8, (2S,4R)-2-(1-Cyano-cyclopropylcarbamoyl)-4-[4-(4-methyl-piperazin-1-yl)-2-trifluoromethyl-benzenesulfonyl]-pyrrolidine-1-carboxylic acid tert-butyl ester] | 9.15 | ≤ 4.60
N#CC1(NC(=O)[C@@H]2C[C@@H](S(=O)(=O)c3ccc(OCC(F)(F)F)cc3Cl)CN2C(=O)C(c2ccc(Cl)cc2)c2ccc(Cl)cc2)CC1 [Example 275, (2S,4R)-1-[2,2-Bis-(4-chloro-phenyl)-acetyl]-4-[2-chloro-4-(2,2,2-trifluoro-ethoxy)-benzenesulfonyl]-pyrrolidine-2-carboxylic acid (1-cyano-cyclopropyl)-amide] | 9.42 | 5.57
N#CC1(NC(=O)[C@@H]2C[C@@H](S(=O)(=O)c3ccccc3Cl)CN2C(=O)C2(c3ccc(Br)cc3)CC2)CC1 [Example 426, (2S,4R)-1-(1-(4-bromophenyl)cyclopropanecarbonyl)-4-(2-chlorophenylsulfonyl)-N-(1-cyanocyclopropyl)pyrrolidine-2-carboxamide] | 9.33 | 7.35
N#CC1(NC(=O)[C@@H]2C[C@@H](S(=O)(=O)c3ccccc3C(F)(F)F)CN2C(=O)C2(c3ccc(Cl)cc3)CCC2)CC1 [Example 360, (2S,4R)-1-[1-(4-Chloro-phenyl)-cyclobutanecarbonyl]-4-(2-trifluoromethyl-benzenesulfonyl)-pyrrolidine-2-carboxylic acid (1-cyano-cyclopropyl)-amide] | 9.73 | 5.93
N#CCNC(=O)[C@@H]1C[C@@H](S(=O)(=O)c2ccccc2Cl)CN1C(=O)c1ccc(F)cc1 [Example 59, (2S,4R)-4-(2-Chloro-benzenesulfonyl)-1-(4-fluoro-benzoyl)-pyrrolidine-2-carboxylic acid cyanomethyl-amide] | 8.74 | 4.92
N#CC1(NC(=O)[C@@H]2C[C@@H](S(=O)(=O)c3ccccc3C(F)(F)F)CN2Cc2ccccc2)CC1 [Example 107, (2S,4R)-1-Benzyl-4-(2-trifluoromethyl-benzenesulfonyl)-pyrrolidine-2-carboxylic acid (1-cyano-cyclopropyl)-amide] | 7.60 | 4.78
CC(C)(C)OC(=O)N1C[C@H](S(=O)(=O)c2ccccc2C(F)(F)F)C[C@H]1C(=O)NC(C#N)C1CC1 (stereo partly drawn) [Example 38, (2S,4R)-2-[(Cyano-cyclopropyl-methyl)-carbamoyl]-4-(2-trifluoromethyl-benzenesulfonyl)-pyrrolidine-1-carboxylic acid tert-butyl ester] | 8.30 | ≤ 4.60
N#CC1(NC(=O)[C@@H]2C[C@@H](S(=O)(=O)c3ccccc3Cl)CN2C(=O)Cn2ccc(C(F)(F)F)n2)CC1 [Example 422, (2S,4R)-4-(2-Chloro-benzenesulfonyl)-1-[2-(3-trifluoromethyl-pyrazol-1-yl)-acetyl]-pyrrolidine-2-carboxylic acid (1-cyano-cyclopropyl)-amide] | 8.73 | 5.36
CC(C)(C)C(=O)N1C[C@H](S(=O)(=O)c2ccccc2Cl)C[C@H]1C(=O)NC1(C#N)CC1 [Example 217, (2S,4R)-4-(2-Chloro-benzenesulfonyl)-1-(2,2-dimethyl-propionyl)-pyrrolidine-2-carboxylic Acid (1-cyano-cyclopropyl)-amide] | 9.15 | 4.86
CC(C)(C)OC(=O)N1C[C@H](S(=O)(=O)c2ccc(Cl)cc2Cl)C[C@H]1C(=O)NC1(C#N)CC1 [Example 4, (2S,4R)-2-(1-Cyano-cyclopropylcarbamoyl)-4-(2,4-dichloro-benzenesulfonyl)-pyrrolidine-1-carboxylic acid-tert-butyl ester] | 8.28 | 4.78
Cc1cc(N2C[C@H](S(=O)(=O)c3ccc(N4CCN(C(C)(C)C)CC4)cc3Cl)C[C@H]2C(=O)NC2(C#N)CC2)n(CCc2ccccc2)n1 [Example 485, (2S,4R)-4-[4-(4-tert-Butyl-piperazin-1-yl)-2-chloro-benzenesulfonyl]-1-(5-methyl-2-phenethyl-2H-pyrazol-3-yl)-pyrrolidine-2-carboxylic acid (1-cyano-cyclopropyl)-amide] | 9.05 | 6.56
CC(=O)N1C[C@H](S(=O)(=O)c2ccccc2Cl)C[C@H]1C(=O)NC1(C#N)CC1 [Example 79, (2S,4R)-1-Acetyl-4-(2-chloro-benzenesulfonyl)-pyrrolidine-2-carboxylic acid (1-cyano-cyclopropyl)-amide] | 8.85 | 4.53
N#CC1(NC(=O)[C@@H]2C[C@@H](S(=O)(=O)c3ccc(-n4ccccc4=O)cc3C(F)(F)F)CN2)CC1 [Example 31, (2S,4R)-4-[4-(2-Oxo-2H-pyridin-1-yl)-2-trifluoromethyl-benzenesulfonyl]-pyrrolidine-2-carboxylic acid (1-cyano-cyclopropyl)-amide hydrochloride] | 8.70 | ≤ 4.60
COCCN1CCN(c2ccc(S(=O)(=O)[C@@H]3C[C@@H](C(=O)NC4(C#N)CC4)N(C(=O)C4(c5ccc(Cl)nc5)CC4)C3)c(Cl)c2)CC1 [Example 372, (2S,4R)-4-{2-Chloro-4-[4-(2-methoxy-ethyl)-piperazin-1-yl]-benzenesulfonyl}-1-[1-(6-chloro-pyridin-3-yl)-cyclopropanecarbonyl]-pyrrolidine-2-carboxylic acid (1-cyano-cyclopropyl)-amide; Compound with Formic Acid] | 10.10 | 7.35
N#CC1(NC(=O)[C@@H]2C[C@@H](S(=O)(=O)c3ccc(N4CCC(C(F)(F)F)CC4)cc3Cl)CN2C(=O)C2(C(F)(F)F)CC2)CC1 [Example 156, (2S,4R)-4-[2-Chloro-4-(4-trifluoromethyl-piperidin-1-yl)-benzenesulfonyl]-1-(1-trifluoromethyl-cyclopropanecarbonyl)-pyrrolidine-2-carboxylic acid (1-cyano-cyclopropyl)-amide] | 9.40 | 5.36
CC(C)(C)OC(=O)N1C[C@H](S(=O)(=O)c2ccc(N3CCC(C(F)(F)F)CC3)cc2Cl)C[C@H]1C(=O)NC1(C#N)CC1 [Example 153, (2S,4R)-4-[2-Chloro-4-(4-trifluoromethyl-piperidin-1-yl)-benzenesulfonyl]-2-(1-cyano-cyclopropylcarbamoyl)-pyrrolidine-1-carboxylic acid tert.-butyl ester] | 8.60 | 4.36
N#CC1(NC(=O)[C@@H]2C[C@@H](S(=O)(=O)c3ccc(-n4cccn4)cc3Cl)CN2)CC1 [Example 128, (2S,4R)-4-(2-Chloro-4-pyrazol-1-yl-benzenesulfonyl)-pyrrolidine-2-carboxylic acid (1-cyano-cyclopropyl)-amide] | 8.85 | 4.76
N#CC1(NC(=O)[C@@H]2C[C@@H](S(=O)(=O)c3ccc(N4CCn5cnnc5C4)cc3Cl)CN2C(=O)C2(C(F)(F)F)CC2)CC1 [Example 301, (2S,4R)-4-[2-Chloro-4-(5,6-dihydro-8H-[1,2,4]triazolo[4,3-a]pyrazin-7-yl)-benzenesulfonyl]-1-(1-trifluoromethyl-cyclopropanecarbonyl)-pyrrolidine-2-carboxylic acid (1-cyano-cyclopropyl)-amide] | 9.92 | 5.81
